In PubChem BioAssay (NCI):
Where “and” joins values, the source holds several entries; their conditions need not be identical. Equal values may be shown once.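 Cells were grown in 96-well plates and exposed to each compound for 48 hours at five concentrations; endpoints were interpolated linearly between bracketing concentrations, or set to the highest concentration if not reached. GI50 = concentration required for 50% inhibition of growth. TGI denotes the concentration required for complete inhibition of growth.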

Tests used:
Assay in all cases: NCI anticancer screen, dose series, 48 h
KM20L2 colon = system: KM20L2 colon
RXF-631 renal = system: RXF-631 renal
DMS 114 small cell lung = system: DMS 114 small cell lung
SNB-78 CNS = system: SNB-78 CNS
HOP-18 NSCLC = system: HOP-18 NSCLC
XF 498 CNS = system: XF 498 CNS
DLD-1 colon = system: DLD-1 colon
BT-549 breast = system: BT-549 breast
MDA-N = system: MDA-N

SMILES	TGI (KM20L2 colon)	TGI (RXF-631 renal) [µM]	TGI (DMS 114 small cell lung) [µM]	TGI (SNB-78 CNS)	TGI (HOP-18 NSCLC)	TGI (XF 498 CNS) [µM]	TGI (DLD-1 colon) [µM]	also measured
COC(=O)C1Cc2c(n(C)c3ccccc23)C(c2ccccc2)N1 (configuration not stated)	> 100 µM	> 100	> 100	> 100 µM	> 100 µM	–	–	–
C=CC[P@@]1(=O)O[C@H](c2ccccc2)C(C)N1C(C)C (some centres not stated)	–	> 100	> 100	> 100 µM	> 100 µM	> 100	> 100	–
O=[N+]([O-])c1ccc(OCCNc2cccc3ccccc23)cc1	> 100 µM	> 100	> 100	–	> 100 µM	> 100	> 100	–
O=C1C(c2ccc(Cl)cc2)=[N+]([O-])c2ccccc21	52.1 µM	48.4	14.3	–	58.9 µM	34.7	30.1	–
O=[N+]([O-])c1ccc2c(c1)OCCOCCOc1ccc([N+](=O)[O-])cc1OCCOCCO2	> 100 µM	–	> 100	> 100 µM	–	–	–	–
CC1=CCP(C(F)(F)F)P(C(F)(F)F)C1 (configuration not stated)	> 100 µM	> 100	> 100	> 100 µM	> 100 µM	–	> 100	–
N#C[C@]12CC3(CC[C@H]1CC1(C2)OCCO1)OCCO3	> 100 µM	> 100	> 100	> 100 µM	> 100 µM	–	> 100	–
Cc1cc(N(CCC#N)CCC#N)ccc1N=Nc1ccccc1[N+](=O)[O-]	–	> 100	> 100	> 100 µM	> 100 µM	80.9	> 100	–
CCCCCCC(O)C/C=C/CCCCCC/C(C(=O)OC)=C(/O)C(=O)OCC (configuration not stated)	–	> 100	> 100	> 100 µM	> 100 µM	> 100	> 100	–
Cc1ccc(C)c(NC(=O)CC2C(=O)Nc3ccccc3S2(=O)=O)c1 (configuration not stated)	> 100 µM	> 100	> 100	> 100 µM	–	61.6	> 100	–
C=C1C(=O)OC2C1C(OC(=O)/C(C)=C/C)CC(O)(CCl)C1C(OC(C)=O)C=C(C)C21O (configuration not stated)	–	–	–	–	–	–	–	TGI (BT-549 breast): 22.8 µM; TGI (MDA-N): 41.8 µM
CC(=O)CC(=O)CCCC(=O)Nc1ccc(Cl)cc1Cl	> 100 µM	> 100	–	–	> 100 µM	> 100	> 100	–
N.N.NCCCCN.O=C([O-])CC(=O)[O-].O=C([O-])CC(=O)[O-].[Pt+4].[Pt+4]	> 100 µM	–	–	> 100 µM	> 100 µM	–	> 100	GI50 (KM20L2 colon): > 100 µM; GI50 (DLD-1 colon): > 100 µM; GI50 (SNB-78 CNS): > 100 µM; GI50 (HOP-18 NSCLC): > 100 µM
COC(=O)C(=O)C(C(=O)C(=O)Nc1ccc([N+](=O)[O-])cc1[N+](=O)[O-])c1nc2ccc([N+](=O)[O-])cc2[nH]c1=O (configuration not stated)	> 100 µM	> 100	> 100	> 100 µM	> 100 µM	> 100	> 100	–
Nc1nc(SCC(=O)O)[nH]c(=O)c1N	–	–	–	–	–	–	–	TGI (BT-549 breast): > 100 µM; TGI (MDA-N): > 100 µM
CN(C)CCN1N=Nc2cccc3cccc1c23	> 100 µM	> 100	> 100	–	> 100 µM	> 100	> 100	–
Cc1c2ncccc2c(C)c2c1[nH]c1ccc(O)cc12	–	–	–	–	–	–	–	TGI (BT-549 breast): 29.3 µM; GI50 (MDA-N): 9.69 µM; TGI (MDA-N): 17.9 µM and 47.5 µM
O=C1C2c3[nH]c4ccccc4c3C3CCSCC3C2C(=O)N1c1ccccc1 (configuration not stated)	> 100 µM	–	–	> 100 µM	–	> 100	> 100	–
CC(=O)C(C(=N)C#N)C(=O)Nc1ccccc1 (configuration not stated)	–	–	–	–	–	–	–	TGI (BT-549 breast): > 100 µM; TGI (MDA-N): > 100 µM
COC1CCC2C(=O)CCCC2O1 (configuration not stated)	> 100 µM	> 100	> 100	> 100 µM	> 100 µM	> 100	> 100	–

SMILES	TGI (KM20L2 colon)	TGI (RXF-631 renal) [µM]	TGI (DMS 114 small cell lung) [µM]	TGI (SNB-78 CNS)	TGI (HOP-18 NSCLC)	TGI (XF 498 CNS) [µM]	TGI (DLD-1 colon) [µM]	also measured
CCOC(=O)c1[nH]c2cccc3c2c1CC(Br)C3=O (configuration not stated)	–	–	–	–	–	–	–	TGI (BT-549 breast): 32.1 µM; TGI (MDA-N): 24.9 µM
CC1(c2ccccc2)CC12C(=O)NC(=O)NC2=O (configuration not stated)	> 100 µM	–	> 100	> 100 µM	–	> 100	> 100	–
CC(C)(C)C(=O)Nc1ccccc1Br	> 100 µM	–	> 100	–	–	> 100	> 100	–
Cc1ccc(C2=[N+]([O-])c3ccccc3C2=O)cc1	98.6 µM	51.7	28.2	74.2 µM	> 100 µM	17.8	57.2	–
Brc1nc2c3ccccc3ncn2c1Br	> 100 µM	> 100	98.4	> 100 µM	47.8 µM	46.9	> 100	–
Nc1ccc(CCN2CCN(c3cccc(C(F)(F)F)c3)CC2)cc1	> 100 µM	> 100	> 100	–	> 100 µM	> 100	> 100	–
CCC12CCC(O)C1N(C)CCC2Sc1ccccc1 (configuration not stated)	> 100 µM	> 100	> 100	> 100 µM	> 100 µM	> 100	–	–
COCC1N=C(c2ccc(OC)c(OCc3ccccc3)c2OC)O[C@H]1c1ccccc1 (some centres not stated)	41.1 µM	–	44.9	96.2 µM	–	–	> 100	–
O=NN(CCCl)C(=O)NCc1ccc[n+]([O-])c1	> 100 µM	> 100	> 100	> 100 µM	–	> 100	> 100	–
O=C1c2cccnc2-c2nc(-c3ccccn3)cc3c2c1nc1ccccc13	–	–	–	–	–	–	–	GI50 (BT-549 breast): 0.249 µM; TGI (BT-549 breast): 0.672 µM; GI50 (MDA-N): 0.259 µM; TGI (MDA-N): 1.25 µM
O=c1oc2ccccc2cc1-c1ccc([N+](=O)[O-])cc1	–	–	–	–	–	–	–	TGI (BT-549 breast): > 100 µM; TGI (MDA-N): > 100 µM
CC1=C2C(=CC(C)(CO)C2O)C(=O)C(C)(O)C12CC2 (configuration not stated)	0.0137 µM	0.0359	0.00769	0.0479 µM	0.0331 µM	–	0.0738	–
COC(=O)[C@H](C)[C@H]1CC[C@@](C)([C@H]2CC3C(C)(C)[C@H]4CCC(C)=C[C@H]4C[C@@]3(C)O2)OO1 (some centres not stated)	27.5 µM	–	14.2	28.9 µM	–	21.8	25.9	–
CC(C)SC1SCC2C(=O)N(C)C3(CC3C)C(=O)OCC(NC(=O)c3nc4ccccc4cc3O)C(=O)NC(C)C(=O)N(C)C1C(=O)N(C)C1(CC1C)C(=O)OCC(NC(=O)c1nc3ccccc3cc1O)C(=O)NC(C)C(=O)N2C (configuration not stated)	–	–	–	–	–	–	–	TGI (MDA-N): < 0.0001 µM
O=C(O)CSCC(=O)c1ccccc1	–	–	–	–	–	–	–	TGI (BT-549 breast): > 100 µM; TGI (MDA-N): > 100 µM
NC(=O)c1csc(C2O[C@@H](COP(=O)(O)OP(=O)(O)OC[C@H]3OC(n4cnc5c(N)ncnc54)[C@H](O)[C@@H]3O)[C@H](O)[C@@H]2O)n1 (some centres not stated)	> 100 µM	–	> 100	> 100 µM	> 100 µM	> 100	> 100	–
O=C(Nc1ccccc1)O/N=C1/CCCC/C1=C\c1ccccc1	43.2 µM	47.3	24.8	33 µM	29.9 µM	–	29.4	–
COc1cccc(/C=C\c2cc(OC)c(OC)c(OC)c2)c1	1.56 µM	> 100	67.3	58.9 µM	–	35.8	> 100	–
Cc1c2cc[n+](C)cc2c(C)c2c1[nH]c1ccc(OC(C)C)cc12	44.3 µM and 39.8 µM	–	–	6.56 µM and > 25.2 µM	27.1 µM and 35.4 µM	–	> 100	GI50 (DLD-1 colon): 1.91 µM and 6.02 µM; GI50 (SNB-78 CNS): 0.427 µM and 3.93 µM
CC1/C=C/C=C/CC/C=C/C=C/C=C/C=C/C(OC2OC(C)C(O)C(N)C2O)CC2OC(CC(O)C(O)CCC(O)CC(O)CC(O)CC(=O)OC(C)C(C)C1O)CC(O)C2C(=O)O (configuration not stated)	–	–	–	–	–	–	–	GI50 (BT-549 breast): 38.8 µg/mL; TGI (BT-549 breast): 34.6 µM and 116 µg/mL; GI50 (MDA-N): 25.6 µg/mL; TGI (MDA-N): 31.8 µM and 46.7 µg/mL
